From patent US20230009626A1 (ICHNOS SCIENCES S.A., priority 2018, published 2023)
pIC50: −log10 of the molar value. Values belong to the molecule of their own block, whether it stands above or below them.

Molecular target: HPK1 (MAP4K1) (Homo sapiens, UniProt Q92918)
Assay: FRET Assay for HPK1 (MAP4K1): one step binding assay, displacement of labeled tracer
Conditions: for inhibition at 1 µM: 1 μM compound; for inhibition at 1 µM / inhibition at 10 µM: FRET ratio 665/620, percent of control; for inhibition at 10 µM: 10 μM compound; for pIC50: dose response curve, nonlinear regression
Summary of the method: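 TR-FRET tracer-displacement binding assay. GST-tagged HPK1 (10 nM) and Eu-anti-GST antibody (4 nM) were pre-incubated with compound on ice for 15 min in 50 mM HEPES pH 7.5, 10 mM MgCl2, 1 mM EGTA, 0.01% Brij-35 (3% DMSO final). Kinase Tracer 222 (20 nM) was then added for 1 h at room temperature. IC50 came from nonlinear regression of percent of control; percent inhibition was also given at 1.0 and 10.0 μM.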

Chain of HPK1 (MAP4K1) (Q92918 whole entry): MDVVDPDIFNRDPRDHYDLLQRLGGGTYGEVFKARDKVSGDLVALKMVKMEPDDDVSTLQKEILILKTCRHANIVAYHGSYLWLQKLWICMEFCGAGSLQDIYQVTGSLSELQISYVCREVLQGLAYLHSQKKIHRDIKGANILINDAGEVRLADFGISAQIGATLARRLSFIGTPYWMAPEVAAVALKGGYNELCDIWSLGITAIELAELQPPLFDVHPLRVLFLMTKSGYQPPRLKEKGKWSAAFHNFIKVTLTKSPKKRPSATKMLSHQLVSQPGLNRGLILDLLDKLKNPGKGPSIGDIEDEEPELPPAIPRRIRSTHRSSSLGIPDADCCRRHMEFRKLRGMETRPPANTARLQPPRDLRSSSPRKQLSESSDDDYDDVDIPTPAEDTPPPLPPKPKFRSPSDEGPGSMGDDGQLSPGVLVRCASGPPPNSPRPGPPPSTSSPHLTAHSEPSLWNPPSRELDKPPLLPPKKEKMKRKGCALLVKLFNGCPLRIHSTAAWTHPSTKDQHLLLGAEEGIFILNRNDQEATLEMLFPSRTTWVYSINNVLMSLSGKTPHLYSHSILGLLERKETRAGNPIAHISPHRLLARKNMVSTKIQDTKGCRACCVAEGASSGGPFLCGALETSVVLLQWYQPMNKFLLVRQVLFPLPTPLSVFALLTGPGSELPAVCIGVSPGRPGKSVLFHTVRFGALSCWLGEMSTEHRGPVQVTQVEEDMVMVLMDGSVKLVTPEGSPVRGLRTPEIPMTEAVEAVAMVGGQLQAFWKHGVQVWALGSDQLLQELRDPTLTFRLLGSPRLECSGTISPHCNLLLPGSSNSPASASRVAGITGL

- inhibition at 1 µM: 78.5%
- inhibition at 10 µM: 83.9%
- pIC50: 7.00 to 7.30
SMILES: C/C(Nc1cn(C)nc1C)=C1/C(=O)Nc2cnc(-c3cnccc3C)cc21 [Example 135, (Z)-3-(1-((1,3-Dimethyl-1H-pyrazol-4-yl)amino)ethylidene)-5-(4-methylpyridin-3-yl)-1H-pyrrolo[2,3-c]pyridin-2(3H)-one]

- inhibition at 1 µM: 80.7%
- inhibition at 10 µM: 80.2%
- pIC50: > 7.30
SMILES: C/C(Nc1ccn([C@H](C)CO)n1)=C1/C(=O)Nc2cnc(-c3cnccc3C)cc21 [Example 137, (R,Z)-3-(1-((1-(1-Hydroxypropan-2-yl)-1H-pyrazol-3-yl)amino)ethylidene)-5-(4-methylpyridin-3-yl)-1H-pyrrolo[2,3-c]pyridin-2(3H)-one]

- inhibition at 1 µM: 90.7%
- pIC50: > 7.30
SMILES: C/C(Nc1ccn(C)n1)=C1/C(=O)Nc2cnc(-c3cncc4c3OCC(=O)N4)cc21 [Example 138, (Z)-8-(3-(1-((1-Methyl-1H-pyrazol-3-yl)amino)ethylidene)-2-oxo-2,3-dihydro-1H-pyrrolo[2,3-c]pyridin-5-yl)-2H-pyrido[4,3-b][1,4]oxazin-3(4H)-one]

- inhibition at 1 µM: 77%
- inhibition at 10 µM: 84.5%
- pIC50: > 7.30
SMILES: C/C(Nc1ccn(C)n1)=C1/C(=O)Nc2cc(C#N)c(-c3cnccc3C)cc21 [Example 139, (Z)-3-(1-((1-Methyl-1H-pyrazol-3-yl)amino)ethylidene)-5-(4-methylpyridin-3-yl)-2-oxoindoline-6-carbonitrile]

- inhibition at 1 µM: 80%
- inhibition at 10 µM: 85.9%
- pIC50: 7.00 to 7.30
SMILES: C/C(Nc1ccn(CC(C)(C)O)n1)=C1/C(=O)Nc2cnc(-c3c(C)cccc3F)cc21 [Example 141, (Z)-5-(2-Fluoro-6-methylphenyl)-3-(1-((1-(2-hydroxy-2-methylpropyl)-1H-pyrazol-3-yl)amino)ethylidene)-1H-pyrrolo[2,3-c]pyridin-2(3H)-one]

- inhibition at 1 µM: 77.9%
- inhibition at 10 µM: 80.8%
- pIC50: > 7.30
SMILES: C/C(Nc1ccn(C(C)(C)C#N)n1)=C1/C(=O)Nc2cnc(-c3c(C)cccc3F)cc21 [Example 142, (Z)-2-(3-((1-(5-(2-Fluoro-6-methylphenyl)-2-oxo-1H-pyrrolo[2,3-c]pyridin-3(2H)-ylidene)ethyl)amino)-1H-pyrazol-1-yl)-2-methylpropanenitrile]

- inhibition at 1 µM: 80.5%
- inhibition at 10 µM: 84.6%
- pIC50: > 7.30
SMILES: COc1cccc(F)c1-c1cc2c(cn1)NC(=O)/C2=C(/C)Nc1ccn(CC(C)(C)O)n1 [Example 144, (Z)-5-(2-Fluoro-6-methoxyphenyl)-3-(1-((1-(2-hydroxy-2-methylpropyl)-1H-pyrazol-3-yl)amino)ethylidene)-1H-pyrrolo[2,3-c]pyridin-2(3H)-one]

- inhibition at 1 µM: 78.7%
- inhibition at 10 µM: 81.7%
- pIC50: > 7.30
SMILES: C/C(Nc1cc2n(n1)CC(=O)N(C(C)C)C2)=C1/C(=O)Nc2cnc(-c3cnccc3C)cc21 [Example 149, (Z)-5-Isopropyl-2-((1-(5-(4-methylpyridin-3-yl)-2-oxo-1H-pyrrolo[2,3-c]pyridin-3(2H)-ylidene)ethyl)amino)-4,5-dihydropyrazolo[1,5-a]pyrazin-6(7H)-one]

- inhibition at 1 µM: 85.2%
- inhibition at 10 µM: 65.2%
- pIC50: > 7.30
SMILES: C/C(Nc1cnn(C)c1)=C1/C(=O)Nc2cc(C#N)c(-c3cnccc3C)cc21 [Example 151, (Z)-3-(1-((1-Methyl-1H-pyrazol-4-yl)amino)ethylidene)-5-(4-methylpyridin-3-yl)-2-oxoindoline-6-carbonitrile]

- inhibition at 1 µM: 74.3%
- inhibition at 10 µM: 70.4%
- pIC50: > 7.30
SMILES: C/C(Nc1cc(C2CC2)n(C)n1)=C1/C(=O)Nc2cnc(-c3cnccc3C)cc21 [Example 152, (Z)-3-(1-((5-Cyclopropyl-1-methyl-1H-pyrazol-3-yl)amino)ethylidene)-5-(4-methylpyridin-3-yl)-1H-pyrrolo[2,3-c]pyridin-2(3H)-one]

- inhibition at 1 µM: 72.5%
- inhibition at 10 µM: 80.9%
- pIC50: > 7.30
SMILES: C/C(Nc1cnn(C[C@@H](C)O)c1)=C1/C(=O)Nc2cnc(-c3cnccc3C)cc21 [Example 153, (R,Z)-3-(1-((1-(2-Hydroxypropyl)-1H-pyrazol-4-yl)amino)ethylidene)-5-(4-methylpyridin-3-yl)-1H-pyrrolo[2,3-c]pyridin-2(3H)-one]

- inhibition at 1 µM: 60.6%
- inhibition at 10 µM: 80%
- pIC50: 7.00 to 7.30
SMILES: C/C(Nc1cnn(C[C@H](C)O)c1)=C1/C(=O)Nc2cnc(-c3cnccc3C)cc21 [Example 156, (S,Z)-3-(1-((1-(2-Hydroxypropyl)-1H-pyrazol-4-yl)amino)ethylidene)-5-(4-methylpyridin-3-yl)-1H-pyrrolo[2,3-c]pyridin-2(3H)-one]

- inhibition at 1 µM: 54.5%
- inhibition at 10 µM: 66.5%
SMILES: C/C(Nc1ccn(C)n1)=C1/C(=O)Nc2cccc(-c3cnccc3C)c21 [Example 157, (Z)-3-(1-((1-Methyl-1H-pyrazol-3-yl)amino)ethylidene)-4-(4-methylpyridin-3-yl)indolin-2-one]

- inhibition at 1 µM: 74.7%
- inhibition at 10 µM: 91.1%
- pIC50: 6.30 to 7.00
SMILES: C/C(Nc1cnn(C)c1)=C1/C(=O)Nc2cnc(-c3cccnc3C)cc21 [Example 158, (Z)-3-(1-((1-Methyl-1H-pyrazol-4-yl)amino)ethylidene)-5-(2-methylpyridin-3-yl)-1H-pyrrolo[2,3-c]pyridin-2(3H)-one]

Continued, molecule first:

SMILES: C/C(Nc1ccn([C@@H](C)CO)n1)=C1/C(=O)Nc2cnc(-c3cnccc3C)cc21 [Example 134, (S,Z)-3-(1-((1-(1-Hydroxypropan-2-yl)-1H-pyrazol-3-yl)amino)ethylidene)-5-(4-methylpyridin-3-yl)-1H-pyrrolo[2,3-c]pyridin-2(3H)-one]
- inhibition at 1 µM: 83.6%
- inhibition at 10 µM: 85.2%
- pIC50: > 7.30

SMILES: C/C(Nc1ccn(C[C@@H](C)O)n1)=C1/C(=O)Nc2cnc(-c3cnccc3C)cc21 [Example 136, (R,Z)-3-(1-((1-(2-Hydroxypropyl)-1H-pyrazol-3-yl)amino)ethylidene)-5-(4-methylpyridin-3-yl)-1H-pyrrolo[2,3-c]pyridin-2(3H)-one]
- inhibition at 1 µM: 82.3%
- inhibition at 10 µM: 78.9%
- pIC50: > 7.30

SMILES: C/C(Nc1ccn(C)n1)=C1/C(=O)Nc2cnc(-c3cncc(N)c3C)cc21 [Example 140, (Z)-5-(5-Amino-4-methylpyridin-3-yl)-3-(1-((1-methyl-1H-pyrazol-3-yl)amino)ethylidene)-1H-pyrrolo[2,3-c]pyridin-2(3H)-one]
- inhibition at 1 µM: 79.8%
- inhibition at 10 µM: 91.3%
- pIC50: > 7.30

SMILES: COCCn1ccc(N/C(C)=C2\C(=O)Nc3cnc(-c4cnccc4C)cc32)n1 [Example 143, (Z)-3-(1-((1-(2-Methoxyethyl)-1H-pyrazol-3-yl)amino)ethylidene)-5-(4-methylpyridin-3-yl)-1H-pyrrolo[2,3-c]pyridin-2(3H)-one]
- inhibition at 1 µM: 80.4%
- inhibition at 10 µM: 83.8%
- pIC50: > 7.30

SMILES: C/C(Nc1ccn(C(C)(C)CO)n1)=C1/C(=O)Nc2cnc(-c3cnccc3C)cc21 [Example 145, (Z)-3-(1-((1-(1-Hydroxy-2-methylpropan-2-yl)-1H-pyrazol-3-yl)amino)ethylidene)-5-(4-methylpyridin-3-yl)-1H-pyrrolo[2,3-c]pyridin-2(3H)-one]
- inhibition at 1 µM: 79.4%
- inhibition at 10 µM: 83.9%
- pIC50: > 7.30

SMILES: C/C(Nc1cc2n(n1)CCOC2)=C1/C(=O)Nc2cnc(-c3cnccc3C)cc21 [Example 146, (Z)-3-(1-((6,7-Dihydro-4H-pyrazolo[5,1-c][1,4]oxazin-2-yl)amino)ethylidene)-5-(4-methylpyridin-3-yl)-1H-pyrrolo[2,3-c]pyridin-2(3H)-one]
- inhibition at 1 µM: 80.2%
- inhibition at 10 µM: 88.7%
- pIC50: > 7.30

SMILES: C/C(Nc1ccn(C2CCN(C3COC3)CC2)n1)=C1/C(=O)Nc2cnc(-c3cnccc3C)cc21 [Example 147, (Z)-5-(4-Methylpyridin-3-yl)-3-(1-((1-(1-(oxetan-3-yl)piperidin-4-yl)-1H-pyrazol-3-yl)amino)ethylidene)-1H-pyrrolo[2,3-c]pyridin-2(3H)-one]
- inhibition at 1 µM: 74.9%
- inhibition at 10 µM: 75.9%
- pIC50: > 7.30

SMILES: C/C(Nc1cnn(C)c1)=C1/C(=O)Nc2cnc(-c3cncc(F)c3C)cc21 [Example 148, (Z)-5-(5-Fluoro-4-methylpyridin-3-yl)-3-(1-((1-methyl-1H-pyrazol-4-yl)amino)ethylidene)-1H-pyrrolo[2,3-c]pyridin-2(3H)-one]
- inhibition at 1 µM: 82.4%
- inhibition at 10 µM: 94%
- pIC50: > 7.30

SMILES: C/C(Nc1cc(C(C)(C)O)n(C)n1)=C1/C(=O)Nc2cnc(-c3cnccc3C)cc21 [Example 150, (Z)-3-(1-((5-(2-Hydroxypropan-2-yl)-1-methyl-1H-pyrazol-3-yl)amino)ethylidene)-5-(4-methylpyridin-3-yl)-1H-pyrrolo[2,3-c]pyridin-2(3H)-one]
- inhibition at 1 µM: 86.7%
- inhibition at 10 µM: 86.1%
- pIC50: > 7.30

SMILES: C/C(Nc1ccn(C)n1)=C1/C(=O)Nc2cnc(-c3cncc(F)c3C)cc21 [Example 154, (Z)-5-(5-Fluoro-4-methylpyridin-3-yl)-3-(1-((1-methyl-1H-pyrazol-3-yl)amino)ethylidene)-1H-pyrrolo[2,3-c]pyridin-2(3H)-one]
- inhibition at 1 µM: 69%
- inhibition at 10 µM: 82.5%
- pIC50: 6.30 to 7.00

SMILES: CNC(=O)C(F)(F)n1ccc(N/C(C)=C2\C(=O)Nc3cnc(-c4cnccc4C)cc32)n1 [Example 155, (Z)-2,2-Difluoro-N-methyl-2-(3-((1-(5-(4-methylpyridin-3-yl)-2-oxo-1H-pyrrolo[2,3-c]pyridin-3(2H)-ylidene)ethyl)amino)-1H-pyrazol-1-yl)acetamide]
- inhibition at 1 µM: 65.1%
- inhibition at 10 µM: 68.8%
- pIC50: > 7.30
